Laboratory results from ChEMBL document CHEMBL2439957, “Design and synthesis of novel pyrimidone analogues as HIV-1 integrase inhibitors” (Bioorg Med Chem Lett, 2013).

Columns and labels:
[1] = target: T1, Human immunodeficiency virus type 1 integrase (Human immunodeficiency virus 1, UniProt Q7ZJM1); assay: Inhibition of Human immunodeficiency virus 1 integrase 3'-processing activity after 30 mins by polyacrylamide gel electrophoresis
[2] = target: T1, Human immunodeficiency virus type 1 integrase; assay: Inhibition of Human immunodeficiency virus 1 integrase strand transfer activity after 30 mins by polyacrylamide gel electrophoresis

T1 sequence (Q7ZJM1 whole entry): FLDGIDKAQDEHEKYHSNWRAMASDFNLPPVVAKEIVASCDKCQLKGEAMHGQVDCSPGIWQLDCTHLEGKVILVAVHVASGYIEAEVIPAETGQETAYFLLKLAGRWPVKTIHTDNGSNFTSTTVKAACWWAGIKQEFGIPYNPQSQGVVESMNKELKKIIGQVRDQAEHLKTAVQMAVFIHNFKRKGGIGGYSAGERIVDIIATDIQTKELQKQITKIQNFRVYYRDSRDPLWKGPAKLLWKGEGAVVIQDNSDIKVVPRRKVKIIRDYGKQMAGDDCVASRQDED

SMILES	IC50 [1] [µM]	IC50 [2] [µM]
CC(C)(C)OC(=O)NCCCn1c(C(C)(C)C)nc(C(=O)NCc2ccc(F)cc2)c(O)c1=O	> 20	> 20
CC(C)(C)c1nc(C(=O)NCc2ccc(F)cc2)c(O)c(=O)n1CCCN	> 20	> 20
CC(C)(C)c1nc(C(=O)NCc2ccc(F)cc2)c(O)c(=O)n1CCCNC(=O)c1ccccc1	> 20	13
CCCC(=O)NCCCn1c(C(C)(C)C)nc(C(=O)NCc2ccc(F)cc2)c(O)c1=O	> 20	20
CC(C)(C)c1nc(C(=O)NCc2ccc(F)cc2)c(O)c(=O)n1CCCNS(=O)(=O)C1CC1 [listing 1 of 2 here]	–	20
CCS(=O)(=O)NCCCn1c(C(C)(C)C)nc(C(=O)NCc2ccc(F)cc2)c(O)c1=O	> 20	7
CC(C)(C)c1nc(C(=O)NCc2ccc(F)cc2)c(O)c(=O)n1CCCNC(=O)c1cccs1	> 20	14
CC(C)(C)c1nc(C(=O)NCc2ccc(F)cc2)c(O)c(=O)n1CCCNC(=O)Cc1cccs1	> 20	20
Cn1cnc(S(=O)(=O)NCCCn2c(C(C)(C)C)nc(C(=O)NCc3ccc(F)cc3)c(O)c2=O)c1	> 20	12
CC(C)(C)C(=O)NCCCn1c(C(C)(C)C)nc(C(=O)NCc2ccc(F)cc2)c(O)c1=O	> 20	20
CC(=O)Nc1ccc(S(=O)(=O)NCCCn2c(C(C)(C)C)nc(C(=O)NCc3ccc(F)cc3)c(O)c2=O)cc1	> 20	8
CC(C)(C)c1nc(C(=O)NCc2ccc(F)cc2)c(O)c(=O)n1CCCNS(=O)(=O)c1ccccc1	> 20	20
CC(C)(C)c1nc(C(=O)NCc2ccc(F)cc2)c(O)c(=O)n1CCCNS(=O)(=O)C1CC1 [listing 2 of 2 here]	> 20	9

Molecules with a lower IC50 [2], results first:

IC50 [1] [µM]	IC50 [2] [µM]	SMILES
–	6	CCC(=O)NCCCn1c(C(C)(C)C)nc(C(=O)NCc2ccc(F)cc2)c(O)c1=O [listing 1 of 2 here]
> 20	5	CC(C)(C)c1nc(C(=O)NCc2ccc(F)cc2)c(O)c(=O)n1CCCNC(=O)C1CC1 [listing 2 of 2 here]
> 20	4	CCC(=O)NCCCn1c(C(C)(C)C)nc(C(=O)NCc2ccc(F)cc2)c(O)c1=O [listing 2 of 2 here]
–	3	CC(C)(C)c1nc(C(=O)NCc2ccc(F)cc2)c(O)c(=O)n1CCCNC(=O)C1CC1 [listing 1 of 2 here]
> 20	3	CC(C)(C)c1nc(C(=O)NCc2ccc(F)cc2)c(O)c(=O)n1CCCNC(=O)c1ccco1
> 20	2	CC(=O)NCCCn1c(C(C)(C)C)nc(C(=O)NCc2ccc(F)cc2)c(O)c1=O
> 20	2	CC(C)(C)c1nc(O)c(O)c(C(=O)NCc2ccc(F)cc2)n1
